Test [1] can be described thus: blockers of dynein-driven microtubule transport – imaging, high-content imaging, dose response (AID 463136).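 Note: mouse mammary adenocarcinoma 3617.4 cells expressing GFP-tagged rat glucocorticoid receptor.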 To be noted: HCS imaging, dynein-mediated cargo transport inhibition; inhibition at max concentration; at 50 µM; stronger effect = higher value.
The test system of test [2] is HCS imaging, dynein-mediated cargo transport inhibition. Described as above.

Results filed as inconclusive are left out. Active and inactive are the calls of the source. The rule behind the calls is not given here.

On to `N#C/C(=C/c1ccc(N2CCCCC2)o1)C(=O)NCCc1c[nH]c2ccccc12`, for which the inhibition in test [1] came out at 98.8%. Besides, in test [2], the IC50 is 31.8 µM.

With `COCCN(C(=O)CCl)C(C(=O)NC1CCCCC1)c1ccccc1C` (stereo not drawn), the inhibition in test [1] was 79.5%. For the same molecule, the IC50 in test [2] is 24.8 µM.

For `CC1CCN(C(=O)c2ccc3c(Cl)c4c(nc3c2)CCCC4)CC1`, the inhibition in test [1] came out at 76.6%. Moreover, the IC50 in test [2] was 21.4 µM.

As to `COc1ccc(CCn2c(C)cc(C(=O)CCl)c2C)cc1OC`, the inhibition in test [1] amounted to 82.1%. For the same molecule, the IC50 in test [2] was 9.84 µM.

As for `CC1C/C(=C/c2ccco2)C(=O)/C(=C/c2ccco2)C1` (stereo not drawn), in test [1], the inhibition was determined as 64.1%. Moreover, the IC50 in test [2] was 39.2 µM.

For the molecule `N=c1oc2c3c4c(cc2cc1C(=O)Nc1ccccc1)CCCN4CCC3`, in test [1], the inhibition worked out at 99%. Besides, in test [2], the IC50 was > 50 µM (inactive).

Regarding `COc1ccc(NC(=O)/C(Cl)=C(/Cl)S(=O)Cc2ccc(C)cc2)cn1` (stereo not drawn), the inhibition in test [1] came to 54.7%. Moreover, the half-inhibitory concentration (IC50) in test [2] is 23.4 µM.

Turning to `COc1ccc(Oc2cc(NC(=O)c3nn(C)cc3[N+](=O)[O-])cc([N+](=O)[O-])c2)cc1`, the inhibition in test [1] is 69.9%. The concentration for half-maximal inhibition (IC50) in test [2] is 43 µM.

Turning to `CCN(CC)c1ccc(/C=C2/SC(=O)N(C(C)C)C2=O)o1`, the inhibition in test [1] was 39.9%. For the same molecule, the IC50 in test [2] is > 50 µM (inactive).

As for `C=CCSc1nnc(C)c(/C=C/Nc2ccc(Cl)cc2)n1`, in test [1], the inhibition stood at 125%. Also, in test [2], the IC50 is 27.7 µM.

Consider `CCOc1cc(/C=C\[N+](=O)[O-])ccc1OCC(=O)N1CCOCC1`, for which, in test [1], the inhibition is 76.4%. Further, the IC50 in test [2] was 37.4 µM.

Turning to `CCN1CC=C2C(C#N)=C(N)C(C#N)(C#N)C(CCc3ccccc3)C2C1` (stereo not drawn), the inhibition in test [1] worked out at 98.8%. For the same molecule, the 50% inhibitory concentration (IC50) in test [2] was 19.5 µM.

Regarding `COc1ccc(/C=C/C(=O)c2c(O)c(OC)c3occc3c2OC)cc1`, the inhibition in test [1] turned out to be 30.2%. For the same molecule, the IC50 in test [2] was > 50 µM (inactive).

Consider `Cc1ccc(SC(=O)c2c(C)noc2-c2cc(C)on2)cc1`, for which the inhibition in test [1] stood at 37.3%. For the same molecule, the IC50 in test [2] was > 50 µM (inactive).

On to `C=CCn1c(C)cc(C(=O)Cn2ncc(Cl)c(Cl)c2=O)c1C`, for which the inhibition in test [1] worked out at 86.5%. Also, the half-inhibitory concentration (IC50) in test [2] was 10.3 µM.

On to `Cn1c(=O)c(NCCO)c2c3c(cccc31)C(=O)c1ccccc1-2`, for which the inhibition in test [1] was -13.2%. Besides, in test [2], the IC50 was > 50 µM (inactive).

Turning to `CC(=O)Cn1ncc(Br)c(Br)c1=O`, in test [1], the inhibition worked out at 78.5%. For the same molecule, in test [2], the IC50 is 5.4 µM.

Turning to `CC1(C)COC(/C=C/c2cccc([N+](=O)[O-])c2)=N1`, the inhibition in test [1] amounted to 88.6%. Besides, the half-inhibitory concentration (IC50) in test [2] was 10 µM.

With `CCN(CC)c1ccc(/C=C/[N+](=O)[O-])cc1`, the inhibition in test [1] was found to be 0.227%. In addition, the IC50 in test [2] was > 50 µM (inactive).

In the case of `Cc1ccc(Sc2ccc(NC(=O)CCl)cc2)cc1C`, the inhibition in test [1] came to 16.3%. Moreover, in test [2], the IC50 is > 50 µM (inactive).

`O=C(c1nnsc1S(=O)(=O)c1ccc(Cl)cc1)N1CCOCC1`: the inhibition in test [1] was 60.5%. Moreover, the concentration for half-maximal inhibition (IC50) in test [2] was 5.38 µM.

For `CCN1C(=O)C(=C/C=C/c2ccco2)C(=O)N(CC)C1=S`, the inhibition in test [1] turned out to be 75.1%. In addition, in test [2], the half-inhibitory concentration (IC50) was 41.3 µM.

`CCCSc1cc(NCCOC(=O)CCC)c([N+](=O)[O-])c2nonc12`: the inhibition in test [1] stood at 59.1%. Also, the 50% inhibitory concentration (IC50) in test [2] was 28.4 µM.

Consider `CSc1nnc(C)c(/C=C/Nc2ccc(C)cc2)n1`, for which, in test [1], the inhibition was found to be 109%. Also, in test [2], the IC50 is 31 µM.

Consider `COc1ccc(-c2csc3nc(-c4ccccc4F)oc(=O)c23)cc1OC`, for which, in test [1], the inhibition came out at 20.3%. In test [2], the IC50 is > 50 µM (inactive).

Regarding `Nc1c(C(=O)C2CC2)sc2nc(-c3cccs3)cc(C(F)(F)F)c12`, in test [1], the inhibition came to 66.4%. For the same molecule, the half-maximal inhibitory concentration (IC50) in test [2] was 38.7 µM.

With `Nc1c(C(=O)c2ccc(Cl)cc2)sc2nsc(SCCN3CCOCC3)c12`, the inhibition in test [1] worked out at 7.23%. In addition, the IC50 in test [2] was > 50 µM (inactive).

As to `O=C(CN(c1cccc(C(F)(F)F)c1)S(=O)(=O)c1ccc(Cl)c([N+](=O)[O-])c1)NCc1ccccc1`, in test [1], the inhibition is 15.7%. The IC50 in test [2] is > 50 µM (inactive).

For the molecule `CCN1/C(=C/C=C/c2oc3ccc4ccccc4c3[n+]2CC)Oc2ccc3ccccc3c21`, in test [1], the inhibition came out at 96.7%. The 50% inhibitory concentration (IC50) in test [2] was 2.51 µM.

For the molecule `CN(Cc1ccc(Cl)s1)C(=O)CCl`, the inhibition in test [1] was 75.8%. Besides, the IC50 in test [2] was 8.74 µM.

`CCOC(=O)c1c(-n2c(C)cc(C=C3C(=O)NC(=S)NC3=O)c2C)sc2c1CCCC2`: the inhibition in test [1] turned out to be 78.1%. The half-inhibitory concentration (IC50) in test [2] is 5.75 µM.

In the case of `Cc1cc(C)c(C)c(S(=O)(=O)ON2C(=O)c3ccccc3C2=O)c1C`, the inhibition in test [1] was -3.7%. For the same molecule, the IC50 in test [2] is > 50 µM (inactive).

`Cc1ccccc1-n1nnnc1Sc1nnnn1-c1ccccc1`: the inhibition in test [1] was found to be 87.8%. Besides, the IC50 in test [2] is 17.6 µM.

As for `CCOC(=O)c1c(-c2ccc(C)cc2)csc1NC(=O)/C(C#N)=C/c1ccc(O)c(OC)c1`, in test [1], the inhibition worked out at 4.51%. For the same molecule, the IC50 in test [2] is > 50 µM (inactive).

What is called inhibition is the change of the read-out against control, counted positive when it falls. As usually defined, the IC50 is the concentration that inhibits the measured activity by half.
